In US20210261636A1, “NEOANTIGENS EXPRESSED IN MULTIPLE MYELOMA AND THEIR USES” (Janssen Biotech, Inc., priority 2020, published 2021):

Columns and labels:
CD8+ T cells = assay: Exogenous autologous healthy donor restimulation assay, TNFα and IFNγ production by CD8+ T cells; format: cell-based, human; design: Frequency (TNFα+ IFNγ+ CD8 T cells): unit not given here; details: for Fold change (CD8+) vs. DMSO: maximum CD8+ T-cell response (TNFα and IFNγ); for Fold change (CD8+) vs. DMSO / Frequency (TNFα+ IFNγ+ CD8 T cells): donor independent, peptide pool 10 μg/mL, healthy donors; for Frequency (TNFα+ IFNγ+ CD8 T cells): maximum CD8+ T-cell response; for Immunogenic (yes/no): positive if CD8+ and/or CD4+ double positive TNFα/IFNγ frequency >=3-fold over DMSO and at least 0.01%
Protocol: (§1) Immunogenicity responses were measured by estimating TNFα IFNγ double positive cells in the CD4+ and/or CD8+ T-cell populations. A response is considered positive if TNFα IFNγ double positive fraction was greater than or equal to three-fold over unstimulated cells (DMSO negative control) with a minimum frequency >=0.01%. […]
(§2) Overlapping 15-mer peptides were designed to span each indicated neoantigen. Their ability to activate T cells was assessed using known methods, such as the assay defnied as exogenous autologous normal donor restimulation assay. The peptides were used as pools using TNFα and IFNγ production by CD8^+ and CD4^+ T cells as a readout. Maximum frequency of CD8^+TNFα^+IFNγ^+ and CD4^+TNFα^+IFNγ^+ T cells and maximum fold change over background for each pool of peptides were analyzed, which were calculated as the highest frequency of CD8^+ TNFα^+IFNγ^+ and CD4^+ TNFα^+IFNγ^+ T cells and resulting fold change across the normal donors evaluated for the peptide.
(§3) CD1c+Dendritic Cells (CD1c+DC) isolated from human healthy PBMCs were thawed using media (IMDM (Gibco) supplemented with glutamine, HEPES, 5% human serum (Sigma), and 1× Pen-Strep). DC cells were resuspended in media supplemented with IL-4 (Peprotech, 20 ng/mL) and GM-CSF (Gibco, 20 ng/mL), plated in 6 well microplates, and rested overnight at 37° C. and 5% CO2 incubator. The following day, DC cells were counted and plated in a 96 well round bottom microplate at a concentration of 30,000 viable cells per well. Lyophilized neoantigen peptide pools (15-mer peptides with 8-mer overlapping peptide sequences) were solubilized in 100% DMSO with a stock concentration of 20 mg/mL Neoantigen peptides pools were added to DCs for a final concentration of 10 μg/mL and rested for 2 hours at 37° C. and 5% CO2 incubator. CEF Peptide Pool “Plus” (Cellular Technologies, Ltd.) was utilized as a positive control (each viral peptide at a final concentration of 4 ug/ml) and DMSO at the same final concentration (0.05%) as the experimental peptides was utilized as a negative control. After 2 hours, DC cells were irradiated with 50 gray of ionizing radiation. Autologous CD3+ Pan-T cells isolated from human normal PBMCs were thawed using media. Following irradiation, autologous Pan-T cells were added to the irradiated DCs at 300,000 viable cells per well. Human IL-15 (Peprotech) was added to all wells at final concentration of 10 ng/ml. Plates were incubated at 37° C. and 5% CO2 incubator for a total of 12 days. Media was refreshed every 2-3 days with IL-15 (R&D System, 10 ng/mL final concentration) and IL-2 (R&D systems, 10 IU/mL final concentration).
(§4) On Day 11, cells were re-stimulated with identical experimental peptide pools or controls, at same concentration as peptide stimulation on Day 1. Protein Inhibitor Cocktail (eBioscience) was added to every well and plate was incubated overnight for 14-16 hours at 37° C. and 5% CO2 incubator. On Day 12, cells were stained for surface and intracellular flow cytometry analysis. The cells were washed with PBS and stained with Live/Dead Fixable Aqua Dead Cell stain (Thermo-Fisher). Following the live/dead stain, cells were blocked using Biotin-Free Fc Receptor Blocker (Accurate Chemical & Scientific Corp). Extracellular cellular flow panel (1 μL/antibody per well in 50 μL) consisted of CD3 PerCP-Cy5.5 (Biolegend), CD4 BV421 (Biolegend), and CD8 APC-Cy7 (Biolegend). After extracellular staining, cells were fixed and permeabilized using Foxp3/Transcription Factor Staining Buffer Set (eBioscience) and stained for intracellular proteins (1:50 dilution) using TNFα FITC (R&D Systems) and IFNγ BV785 (Biolegend). Cells were washed and resuspended in stain buffer, analyzed, and recorded in a BD Celesta flow cytometer.
(§5) Flow cytometry analysis was conducted on FlowJo v10.6 software. Cells were gated on live, singlet, CD3+, CD4+ and CD8+ T cells. The CD8+ and CD4+ T cells were analyzed for TNFα and IFNγ expression. […]

CD4+ T cells = assay: Exogenous autologous healthy donor restimulation assay, TNFα and IFNγ production by CD4+ T cells; format: cell-based, human; design: Frequency (TNFα+ IFNγ+ CD4 T cells): unit not given here; details: donor independent, peptide pool 10 μg/mL, healthy donors; for Fold change (CD4+) vs. DMSO: maximum CD4+ T-cell response (TNFα and IFNγ); for Frequency (TNFα+ IFNγ+ CD4 T cells): maximum CD4+ T-cell response
Protocol: as §1, §2, §3, §4, §5

Sequence	Fold change (CD8+) vs. DMSO (CD8+ T cells)	Frequency (TNFα+ IFNγ+ CD8 T cells) (CD8+ T cells)	Immunogenic (yes/no) (CD8+ T cells)	Fold change (CD4+) vs. DMSO (CD4+ T cells)	Frequency (TNFα+ IFNγ+ CD4 T cells) (CD4+ T cells)
LQAILQPGNFILVNEI [AS5, alternative splicing, C3orf79]	4.64	0.068	Yes	19.14	0.14
LRYLIHLRKWKIK [FUS55, gene fusion FAM214A-> ARPP19]	13.57	0.38	Yes	74.67	0.056
LTALLLLASTPTP [AS18, alternative splicing, FCRLB]	7.33	0.082	Yes	12.922	0.006
LVARPEIQIFMEEDVMKVE [AS124, alternative splicing, PDZRN4]	5.27	0.089	Yes	7.31	0.064
MDLTAIYEDSAGPLSHA [FUS54, gene fusion ZFP36-> PLEKHG2]	15.176	2.58	Yes	9.66	0.063
MDLTAIYETMQIFVKT [FUS30, gene fusion ZFP36-> UBC]	3.5	0.13	Yes	51.81	0.1
MEPTTKRGPGGTMVSAAAPS [FUS52, gene fusion SELPLG-> TMEM119]	46.95	2.09	Yes	6.831	0.02
MKQFLDFGECGPGPWAFLRGPGRGAAAAAPGRVGAGQLSPEAHPSSSAFPPPAP [AS10, alternative splicing, PDK1]	70.588	12	Yes	76.818	0.028
NASLHEVKDFFVPFPLPLLHLTSLKRNKLFN [AS110, alternative splicing, CCDC88A]	228.56	4.21	Yes	36.021	0.21
NAVRSYYEGTENIVAV [FUS18, gene fusion CADPS2-> RNF148]	542.51	0.671	Yes	0.95	0.005
NAVRSYYETNGGMSFLRITP [FUS19, gene fusion CADPS2-> RNF148]	12.96	0.016	Yes	1.26	0.009
NRVTALTQN [FUS35, gene fusion TMED3-> KIAA1024]	3.24	0.049	Yes	2.28	0.019
